Here are results for three molecules from paper PMC3355305, “Localized Dimerization and Nucleoid Binding Drive Gradient Formation by the Bacterial Cell Division Inhibitor MipZ” (Molecular Cell, 2012).

Data set [1] concerns the target T1, D42A (Caulobacter vibrioides, UniProt Q9A6C9, D42A).
T1 construct: gene mipZ; hexahistidine-tagged, full length, overproduced in E. coli Rosetta2(DE3)pLysS
T1 sequence (Q9A6C9 1-278 D42A): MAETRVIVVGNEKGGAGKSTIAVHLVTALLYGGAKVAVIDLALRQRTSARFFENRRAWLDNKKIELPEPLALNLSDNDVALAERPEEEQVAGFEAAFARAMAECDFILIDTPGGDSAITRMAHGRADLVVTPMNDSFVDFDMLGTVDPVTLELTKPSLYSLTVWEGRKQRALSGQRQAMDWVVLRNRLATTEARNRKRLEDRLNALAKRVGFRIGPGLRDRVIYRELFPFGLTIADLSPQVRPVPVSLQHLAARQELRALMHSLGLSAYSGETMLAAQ
Put plainly: Stopped-flow FRET transient kinetics of mant-ADP binding to MipZ (excitation 297 nm, 360 nm cut-off) at 30 °C in 50 mM Hepes/NaOH pH 7.2, 50 mM KCl, 10 mM MgCl2, 1 mM β-mercaptoethanol; KD calculated as koff/kon, with koff from displacement by excess unlabeled nucleotide. From the text: (§1) Once released from the dimeric complex, MipZ monomers must undergo nucleotide exchange to enter the next reaction cycle (Figure 2A). To clarify the requirements for the exchange reaction, we studied the nucleotide binding kinetics of MipZ by monitoring its interaction with methylanthraniloyl (mant)-labeled ADP and ATP analogs (Figure S3). Since the mant group blocks dimer formation, our measurements specifically focused on the initial nucleotide-binding step without interference from subsequent reactions.
(§2) Figure S3. Steady-state and transient kinetic analysis of nucleotide binding to MipZ, Related to Table 2.
(§3) (A) Fluorescence emission spectra of mant-ATP. MipZ (1 µM) and/or mant-ATP (60 µM) were mixed in buffer BC containing no (+ Mg2+) or 10 mM (- Mg2+) EDTA. Emission spectra were recorded in a PC1 photon-counting spectrofluorimeter (ISS) using fluorescence resonance energy transfer (FRET) and an excitation wavelength of 290 nm.
(§4) (B) Association of MipZ with mant nucleotides.
(§5) (data not shown), necessitating the use of ADP and ATP analogues that carried a fluorescent methylanthraniloyl (mant) group attached to the 2'- or 3'-hydroxy group of the ribose moiety. Due to the bulkiness of the mant group and a critical role of these hydroxy groups in MipZ dimerization, the modified nucleotides are predicted to block dimer formation, consistent with their failure to be hydrolyzed by MipZ or mediate MipZ self-association in the SPR assay (data not shown). This circumstance allowed us to focus the measurements on the initial nucleotide binding step without interference from subsequent reactions.
(§6) Interaction of the mant group with the protein surface led to a marked increase in fluorescence (panel A). Consistent with the easy accessibility of the nucleotide-binding site and the lack of major conformational changes, the transients recorded after rapid mixing of MipZ with mant nucleotides could be fitted to single-exponential equations, indicating single-step binding reactions.
(§7) Shown is a typical curve representing the change in mant fluorescence upon binding of mant-ATP (30 µM) to MipZ (1 µM).
(§8) Fitting of the data yielded a pseudo-first order rate constant (kobs) of 4.7 s-1. […]
(§9) determining the second-order rate constant of the association reaction. Shown is a representative graph in which the kobs values measured for mant-ATP were plotted against the corresponding mant-ATP concentrations. […]
(§10) (D) Dissociation of mant nucleotides from MipZ. In order to determine the dissociation rate constants (koff), we monitored the displacement of mant-labeled nucleotides from MipZ by an excess of unlabeled nucleotide. […] Shown is a typical curve representing the change in mant fluorescence upon dissociation of mant-ATP (30 µM) from MipZ (1 µM) in the presence of 2 mM ATP. […]

The target in data set [2] is T2, G14V (Caulobacter vibrioides, UniProt Q9A6C9, G14V).
T2 construct: gene mipZ; hexahistidine-tagged, full length, overproduced in E. coli Rosetta2(DE3)pLysS; constitutively monomeric
T2 sequence (Q9A6C9 1-278 G14V): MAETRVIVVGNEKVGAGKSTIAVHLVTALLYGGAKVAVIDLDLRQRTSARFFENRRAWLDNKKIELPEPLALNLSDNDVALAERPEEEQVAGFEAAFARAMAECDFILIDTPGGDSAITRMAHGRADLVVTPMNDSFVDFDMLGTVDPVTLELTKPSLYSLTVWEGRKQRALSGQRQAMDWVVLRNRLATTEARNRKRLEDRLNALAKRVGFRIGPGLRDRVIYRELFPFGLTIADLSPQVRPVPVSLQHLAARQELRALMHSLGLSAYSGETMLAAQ
The description is as above.
Description: as §1, §2, §3, §4, §5, §6, §7, §8, §9, §10

Data set [3] deals with T3, K13A (Caulobacter vibrioides, UniProt Q9A6C9, K13A).
T3 construct: gene mipZ; hexahistidine-tagged, full length, overproduced in E. coli Rosetta2(DE3)pLysS; constitutively monomeric
T3 sequence (Q9A6C9 1-278 K13A): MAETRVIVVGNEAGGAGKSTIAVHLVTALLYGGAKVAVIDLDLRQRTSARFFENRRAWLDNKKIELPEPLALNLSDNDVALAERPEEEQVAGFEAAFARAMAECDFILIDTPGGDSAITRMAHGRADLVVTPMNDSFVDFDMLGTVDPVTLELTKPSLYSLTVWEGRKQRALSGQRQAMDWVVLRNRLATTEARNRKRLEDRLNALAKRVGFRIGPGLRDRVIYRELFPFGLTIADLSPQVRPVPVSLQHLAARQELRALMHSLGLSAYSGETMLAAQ
The description is as above.
Description: as §1, §2, §3, §4, §5, §6, §7, §8, §9, §10

Data set [4] deals with T4, WT (MipZ) (Caulobacter vibrioides, UniProt Q9A6C9).
T4 construct: hexahistidine-tagged, full length, overproduced in E. coli Rosetta2(DE3)pLysS
T4 sequence (Q9A6C9 1-278): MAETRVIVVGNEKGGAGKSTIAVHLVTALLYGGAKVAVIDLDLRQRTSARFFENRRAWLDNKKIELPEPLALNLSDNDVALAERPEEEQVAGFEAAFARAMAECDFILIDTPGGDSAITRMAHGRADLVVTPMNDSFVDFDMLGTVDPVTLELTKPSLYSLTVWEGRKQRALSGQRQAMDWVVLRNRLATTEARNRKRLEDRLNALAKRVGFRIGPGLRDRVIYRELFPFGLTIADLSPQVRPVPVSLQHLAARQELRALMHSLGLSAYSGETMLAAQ
The description is as above.
Description: as §1, §2, §3, §4, §5, §6, §7, §8, §9, §10

The target of data set [5] is T1, D42A. The data set can be described thus: Stopped-flow FRET transient kinetics of mant-ATP binding to MipZ (excitation 297 nm, 360 nm cut-off) at 30 °C in 50 mM Hepes/NaOH pH 7.2, 50 mM KCl, 10 mM MgCl2, 1 mM β-mercaptoethanol; KD calculated as koff/kon, with koff from displacement by excess unlabeled nucleotide.
Description: as §1, §2, §3, §4, §5, §6, §7
(§11) Fitting of the data yielded a pseudo-first order rate constant (kobs) of 4.7 s-1.
(§12) (C) Determination of the second-order association rate constants (kon). The pseudo-first order rate constants for the association of […]
(§13) determining the second-order rate constant of the association reaction. Shown is a representative graph in which the kobs values measured for mant-ATP were plotted against the corresponding mant-ATP concentrations. Fitting of the data to the linear function kobs=kon[mant-ATP]+koff yielded a value of 6.8 x 104 M-1s-1 for kon.
(§14) (D) Dissociation of mant nucleotides from MipZ. In order to determine the dissociation rate constants (koff), we monitored the displacement of mant-labeled nucleotides from MipZ by an excess of unlabeled nucleotide. All transients obtained could be fitted to single-exponential functions. Shown is a typical curve representing the change in mant fluorescence upon dissociation of mant-ATP (30 µM) from MipZ (1 µM) in the presence of 2 mM ATP. […]

Data set [6] addresses T2, G14V. The description is as above.
Description: as §1, §2, §3, §4, §5, §6, §7, §11, §12, §13, §14

Data set [7] concerns the target T3, K13A. The description is as above.
Description: as §1, §2, §3, §4, §5, §6, §7, §11, §12, §13, §14

The target in data set [8] is T4, WT (MipZ). Described as above.
Description: as §1, §2, §3, §4, §5, §6, §7, §11, §12, §13, §14

Another data set has as its target T5, K18Q (Caulobacter vibrioides, UniProt Q9A6C9, K18Q).
T5 construct: gene mipZ; hexahistidine-tagged, full length, overproduced in E. coli Rosetta2(DE3)pLysS; constitutively monomeric
T5 sequence (Q9A6C9 1-278 K18Q): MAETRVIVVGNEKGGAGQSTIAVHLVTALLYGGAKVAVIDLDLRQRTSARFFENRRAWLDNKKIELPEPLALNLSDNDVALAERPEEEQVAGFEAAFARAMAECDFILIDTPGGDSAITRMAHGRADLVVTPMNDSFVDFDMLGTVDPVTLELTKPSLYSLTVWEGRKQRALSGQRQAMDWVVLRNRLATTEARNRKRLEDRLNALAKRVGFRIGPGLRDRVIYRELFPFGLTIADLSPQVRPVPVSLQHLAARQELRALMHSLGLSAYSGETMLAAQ
Described as above.
Description: as §1, §2, §3, §4, §5, §6, §7, §11, §12, §13, §14

The target of a further data set is T6, MipZ (Caulobacter crescentus, UniProt Q9A6C9 1-278).
T6 sequence: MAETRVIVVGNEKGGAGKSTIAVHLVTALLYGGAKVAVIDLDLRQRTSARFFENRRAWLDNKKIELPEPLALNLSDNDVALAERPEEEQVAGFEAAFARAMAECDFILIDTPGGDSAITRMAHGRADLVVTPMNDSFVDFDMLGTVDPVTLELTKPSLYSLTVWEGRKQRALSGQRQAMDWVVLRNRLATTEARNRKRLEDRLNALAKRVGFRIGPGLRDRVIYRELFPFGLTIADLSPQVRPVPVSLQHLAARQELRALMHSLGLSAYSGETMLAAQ
The data set can be described thus: SPR; 2 mM ATP, Mg2+; koff 1.5 min-1 (Fig S5C); SPR: buffer P2 or buffer BC (Mg2+-containing) with 2 mM nucleotide, composition not in material; EMSA: 1.25 mM nucleotide, 270 nM-5.6 uM protein, room temperature. The note with it: protein: recombinant; chain copies: 2; label: biotin (immobilized); blunt.

The next data set addresses T7, ParB (Caulobacter crescentus, UniProt B8GW30 1-304).
T7 sequence: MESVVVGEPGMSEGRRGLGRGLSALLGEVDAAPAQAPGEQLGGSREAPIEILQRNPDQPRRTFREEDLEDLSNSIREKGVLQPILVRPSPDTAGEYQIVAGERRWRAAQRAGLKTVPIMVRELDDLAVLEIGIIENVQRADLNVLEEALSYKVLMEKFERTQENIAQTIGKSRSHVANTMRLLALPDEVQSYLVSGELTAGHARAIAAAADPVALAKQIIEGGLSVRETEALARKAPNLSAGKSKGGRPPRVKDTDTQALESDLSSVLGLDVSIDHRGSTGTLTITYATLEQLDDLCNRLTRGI
Put plainly: SPR; ParB alone; SPR: buffer P2 or buffer BC (Mg2+-containing) with 2 mM nucleotide, composition not in material; EMSA: 1.25 mM nucleotide, 270 nM-5.6 uM protein, room temperature. The settings on record: protein: recombinant; tags: none (native ParB); chain copies: 2; label: biotin (immobilized); blunt. (Surface plasmon resonance follows binding to a sensor surface in real time, without labels.)

Another data set addresses T8, MipZ-D42A (Caulobacter crescentus, UniProt Q9A6C9 1-278, D42A).
T8 sequence: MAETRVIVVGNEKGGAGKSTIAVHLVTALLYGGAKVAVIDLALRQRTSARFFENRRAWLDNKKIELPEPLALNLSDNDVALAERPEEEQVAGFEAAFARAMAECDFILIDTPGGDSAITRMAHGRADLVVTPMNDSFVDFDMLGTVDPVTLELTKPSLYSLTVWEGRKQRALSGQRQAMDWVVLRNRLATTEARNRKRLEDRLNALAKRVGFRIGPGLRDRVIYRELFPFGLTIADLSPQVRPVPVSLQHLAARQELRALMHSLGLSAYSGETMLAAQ
The data set can be described thus: SPR; ATP; slower dissociation than WT; SPR: buffer P2 or buffer BC (Mg2+-containing) with 2 mM nucleotide, composition not in material; EMSA: 1.25 mM nucleotide, 270 nM-5.6 uM protein, room temperature. The settings on record: protein: recombinant; chain copies: 2; label: biotin (immobilized); blunt.

By Kd is commonly meant a measure of binding affinity in units of concentration. On to `CNc1ccccc1C(=O)O[C@H]1[C@@H](O)[C@H](n2cnc3c(N)ncnc32)O[C@@H]1COP(=O)(O)OP(=O)(O)O` [mant-ADP, 2'/3'-O-methylanthraniloyl-ADP (methylanthraniloyl-labeled ADP)], for which the dissociation constant (Kd) at D42A [1] is 69 µM; at G14V [2] it was 4.5 µM; on K13A [3], 41 µM; at WT (MipZ) [4] it was 26 µM.

`CNc1ccccc1C(=O)O[C@H]1[C@@H](O)[C@H](n2cnc3c(N)ncnc32)O[C@@H]1CO[P@@](=O)(O)O[P@](=O)(O)OP(=O)(O)O` [mant-ATP, 2'/3'-O-methylanthraniloyl-ATP (methylanthraniloyl-labeled ATP)]: the Kd was 58 µM at D42A [5]; 1.3 µM at G14V [6]; 38 µM on K13A [7]; 31 µM at WT (MipZ) [8]; 121 µM at K18Q.

B1: ran2 (dsDNA)
DNA 1: GTCGACAGAGTTCGCTAACATCGAGC
DNA 2: GCTCGATGTTAGCGAACTCTGTCGAC
With B1, the results for the binding result with MipZ, with ParB and with MipZ-D42A were “binds”, “no binding” and “binds”, respectively.
